From the supplement of paper PMC5908809

How the values were obtained:
[1] = tested on: NK-92 (IL-2 2.5 ng/mL); experiment: drug sensitivity score (DSS) (DSS units); higher = more sensitive; extreme values may be limits of the assay; conditions: 72 h
[2] = tested on: normal primary NK cells, pool 1 (3 donors) (IL-2 2.5 ng/mL); experiment: as above; conditions: 72 h
[3] = tested on: normal primary NK cells, pool 3 (3 donors) (IL-2 2.5 ng/mL); experiment: as above; conditions: 72 h
[4] = tested on: IMC-1 (IL-2 20 ng/mL); experiment: as above; conditions: 72 h
[5] = tested on: normal primary NK cells, pool 2 (3 donors) (IL-2 2.5 ng/mL); experiment: as above; conditions: 72 h
[6] = tested on: NKL (IL-2 2.5 ng/mL); experiment: as above; conditions: 72 h
[7] = tested on: KAI3 (IL-2 2.5 ng/mL); experiment: as above; conditions: 72 h
[8] = tested on: normal primary NK cells, pool 1 (3 donors), resting (IL-2 0 ng/mL); experiment: as above; conditions: 72 h
[9] = tested on: SNK-6 (IL-2 2.5 ng/mL); experiment: as above; conditions: 72 h
[10] = tested on: DERL-7 (IL-2 2.5 ng/mL); experiment: as above; conditions: 72 h
[11] = tested on: YT (IL-2 2.5 ng/mL); experiment: as above; conditions: 72 h
[12] = tested on: NK-YS (IL-2 2.5 ng/mL); experiment: as above; conditions: 72 h
[13] = tested on: KHYG-1 (IL-2 2.5 ng/mL); experiment: as above; conditions: 72 h
[14] = tested on: NK-92 (IL-2 2.5 ng/mL); experiment: percent inhibition of viability; higher = more inhibition; conditions: 72 h
[15] = tested on: normal primary NK cells, pool 1 (3 donors) (IL-2 2.5 ng/mL); experiment: as above; conditions: 72 h
[16] = tested on: normal primary NK cells, pool 3 (3 donors) (IL-2 2.5 ng/mL); experiment: as above; conditions: 72 h
[17] = tested on: IMC-1 (IL-2 20 ng/mL); experiment: as above; conditions: 72 h
[18] = tested on: normal primary NK cells, pool 2 (3 donors) (IL-2 2.5 ng/mL); experiment: as above; conditions: 72 h
[19] = tested on: NKL (IL-2 2.5 ng/mL); experiment: as above; conditions: 72 h
[20] = tested on: KAI3 (IL-2 2.5 ng/mL); experiment: as above; conditions: 72 h
[21] = tested on: normal primary NK cells, pool 1 (3 donors), resting (IL-2 0 ng/mL); experiment: as above; conditions: 72 h
[22] = tested on: SNK-6 (IL-2 2.5 ng/mL); experiment: as above; conditions: 72 h
[23] = tested on: DERL-7 (IL-2 2.5 ng/mL); experiment: as above; conditions: 72 h
[24] = tested on: YT (IL-2 2.5 ng/mL); experiment: as above; conditions: 72 h
[25] = tested on: NK-YS (IL-2 2.5 ng/mL); experiment: as above; conditions: 72 h
[26] = tested on: KHYG-1 (IL-2 2.5 ng/mL); experiment: as above; conditions: 72 h
[27] = tested on: normal NK cells expanded with K562-aAPC; experiment: as above; conditions: 72 h, IL-2 2.5 ng/mL
Method: (§1)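 Drug sensitivity and resistance testing on K562-aAPC-expanded normal NK cells: 5 concentrations (10-fold steps over a 10,000-fold range), 72 h at 37 °C, viability by CellTiter-Glo normalised to DMSO and benzethonium chloride controls; DSS from the fitted curve.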

[28] = tested on: normal NK cells expanded with K562-aAPC; experiment: drug sensitivity score (DSS) (DSS units); higher = more sensitive; extreme values may be limits of the assay; conditions: 72 h; IL-2 2.5 ng/mL
Method: as §1

NC(=O)Nc1cc(-c2cccc(F)c2)sc1C(=O)N[C@H]1CCCNC1 [AZD7762] (max concentration tested 1000 nM)
Conditions	drug sensitivity score
[1]	10.2
[2]	3.1
[3]	0.69
[4]	4.99
[5]	1.59
[6]	14.9
[7]	18
[8]	2.58
[9]	10
[10]	10.7
[11]	9.64
[12]	10.1
[13]	18.4
[28]	9.03

percent inhibition of viability [%]
Conditions	0.1 nM	1 nM	10 nM	100 nM	1000 nM
[14]	-12.3	2.34	-2.59	33.4	104
[15]	-5.93	12.7	4.94	7.28	38.7
[16]	-4.39	6.88	-1.78	-16.7	27.9
[17]	-6.23	-1.75	-2.17	-7.04	99
[18]	-6.25	11.4	-7.48	-6.09	39.8
[19]	-9.43	-12.1	12	71.8	94.4
[20]	3.25	1.46	16.1	87.4	101
[21]	-1.65	27.9	17.6	7.65	15
[22]	1.39	-7.11	6.7	38.1	98.3
[23]	0.34	1.83	-2.38	40.2	96.8
[24]	-5.67	-1.28	2.8	28.1	99.1
[25]	-4.78	-5.3	-1.14	32.8	98.5
[26]	-7.54	-7.13	3.29	100	106
[27]	-1.82	-2.38	-5.7	40.7	73.3

N#Cc1ccc2[nH]c(O)c(-c3ccc(CN4CCOCC4)cn3)c2c1 [AZD-1080] (max concentration tested 10000 nM)
Conditions	drug sensitivity score
[1]	0
[2]	0
[3]	0.08
[4]	3.76
[5]	0
[6]	0.66
[7]	0.09
[8]	0
[9]	0
[10]	4.59
[11]	0.3
[12]	0.06
[13]	0.09
[28]	0.28

percent inhibition of viability [%]
Conditions	1 nM	10 nM	100 nM	1000 nM	10000 nM
[14]	-5.77	-9.41	-10.5	-11.2	-14.5
[15]	-13.1	1.31	-13.3	-7.59	-4.41
[16]	6.51	4.2	7.89	-9.63	14.5
[17]	-6.19	-4.98	-2.55	-0.22	68.7
[18]	3.02	1.99	-1.33	-5.26	2.97
[19]	-2.17	-4.57	-11.4	-10.8	26.2
[20]	-2.28	-5.79	-9.97	-21.1	16.1
[21]	-0.71	6.84	6.15	-35.3	-109
[22]	-12	-18.9	-7.02	-36.2	-41.6
[23]	0.69	-2.27	-0.41	-4.2	88.5
[24]	-4.13	-5.06	-2.61	-7.8	19
[25]	-7.92	-9.02	-9.19	-12.2	14.6
[26]	-9.77	-11.1	-7.95	-10.2	15.1
[27]	-8.89	-11.1	-9.66	-4.69	17.9

Cc1cc([C@@H](C)Nc2ccccc2C(=O)O)c2nc(N3CCOCC3)cc(=O)n2c1 [AZD-6482] (max concentration tested 2500 nM)
Conditions	drug sensitivity score
[1]	3.55
[2]	0.92
[3]	0.05
[4]	0
[5]	1.26
[6]	0
[7]	0
[8]	0.12
[9]	0.11
[10]	0.68
[11]	2.58
[12]	0
[13]	0
[28]	1.31

percent inhibition of viability [%]
Conditions	0.25 nM	2.5 nM	25 nM	250 nM	2500 nM
[14]	-8.01	-6.53	4.21	8.86	41.9
[15]	-3.99	-0.34	5.64	2.68	19.6
[16]	-9.49	-6.79	13.8	-3.71	13
[17]	1.39	3.21	2.72	3.93	-5.9
[18]	-5.18	0.99	18.9	5.04	17.1
[19]	-13.3	2.45	-1.09	6.43	-3.2
[20]	-5.85	-0.65	-3.24	1.82	7.93
[21]	1.92	-14.9	-3.13	-1.54	14
[22]	17.7	22.5	28.9	18.4	9.67
[23]	-4.2	-4.4	3.19	2.6	17
[24]	2.09	3.67	7.43	14.2	28.4
[25]	-5.33	-1.23	-3.08	0.81	7.94
[26]	-0.9	1.99	2.56	6.11	8.71
[27]	-0.89	-3.51	0.58	12.4	16.6
